Test results: patent US10258039B2, “Substituted pyrazolylpyrazole derivative and use of same as herbicide” (KYOYU AGRI CO., LTD., priority 2015, dated 2019)

Experiments:
Format in all cases: in vivo
[1] = test system: Amaranthus retroflexus; assay: Farming soil treatment test; conditions: soil surface spray prior to weed growth, 30 days, 30° C.
Protocol: (§1) 2. Farming Soil Treatment Test
(§2) Field soil was filled into a 1/6000 are pot followed by seeding with Digitaria ciliaris, Chenopodium album and Amaranthus retroflexus and covering with soil.
(§3) Wettable powders of compounds of formula (I) shown in Table 1 prepared in compliance with the preparation examples were diluted with water to the prescribed amount of chemical and uniformly sprayed onto each soil surface layer using 100 liters of sprayed water per 10 are prior to weed growth following seeding.
(§4) After treating for 30 days in a glass greenhouse at an average atmospheric temperature of 30° C., the herbicidal efficacy thereof was investigated.
(§5) Evaluation of herbicidal efficacy was carried out in the same manner as the above-mentioned Test Example 1.

[2] = test system: Chenopodium album; assay: Farming soil treatment test; conditions: soil surface spray prior to weed growth, 30 days, 30° C.
Protocol: as §1, §2, §3, §4, §5

[3] = test system: Digitaria ciliaris; assay: Farming soil treatment test; conditions: soil surface spray prior to weed growth, 30 days, 30° C.
Protocol: as §1, §2, §3, §4, §5

[4] = test system: Echinochloa crus-galli; assay: Paddy herbicidal activity test; conditions: irrigated paddy pot, treated at 3.5 leaf stage of Echinochloa crus-galli, 30 days, 30° C.
Protocol: (§6) 1. Paddy Herbicidal Activity Test
(§7) Rice paddy soil was filled into a 1/10000 are pot followed by the addition of suitable amounts of water and chemical fertilizer, kneading, seeding with Echinochloa crus-galli, Monochoria vaginalis and Scirpus juncoides and maintaining in an irrigated state at a water depth of 3 cm.
(§8) Wettable powders of Target Compound (I) shown in. Table 1 prepared in compliance with the preparation examples were diluted with a suitable amount of water, rice plants in the 2.0 leaf stage were transplanted during 3.5 leaf stage of Echinochloa crus-galli, and treated by dropping in chemical in the prescribed amount per 10 are using a pipette.
as §4
(§9) Evaluation of herbicidal efficacy was carried out by comparing growth inhibition rate (%) with an untreated group, while evaluation of phytotoxicity was carried out by comparing growth inhibition rate (%) with the state of a complete eradication group, and were evaluated at 11 levels indicated below.

[5] = test system: Monochoria vaginalis; assay: Paddy herbicidal activity test; conditions: irrigated paddy pot, 30 days, 30° C.
Protocol: as §6, §7, §8, §4, §9

[6] = test system: Scirpus juncoides; assay: Paddy herbicidal activity test; conditions: irrigated paddy pot, 30 days, 30° C.
Protocol: as §6, §7, §8, §4, §9

[7] = test system: Oryza sativa; assay: Paddy herbicidal activity test, phytotoxicity to transplanted rice; conditions: rice transplanted at 2.0 leaf stage, 30 days, 30° C.
Protocol: as §6, §7, §8, §4, §9

[8] = test system: Amaranthus retroflexus; assay: Weed foliar treatment test (Test 3, 1.0 to 2.0 leaf stage); conditions: foliar spray at 1.0 to 2.0 leaf stage of Digitaria ciliaris, 3 weeks, 25° C.
Protocol: (§10) 3. Weed Foliar Treatment Test
(§11) Soil was filled into a 1/6000 are pot followed by seeding with Digitaria ciliaris, Chenopodium album and Amaranthus retroflexus, covering with soil, and cultivating in a glass greenhouse at an average atmospheric temperature of 25° C.
(§12) Wettable powders of Target Compound (I) shown in Table 1 prepared in compliance with the preparation examples were diluted with water to the prescribed amount of chemical and uniformly sprayed onto the weeds using 150 liters of sprayed water per 10 are when Digitaria ciliaris had grown to the 1.0 to 2.0 leaf stage.
(§13) After treating for 3 weeks in a glass greenhouse at an average atmospheric temperature of 25° C., the herbicidal efficacy thereof was investigated.
as §5

[9] = test system: Chenopodium album; assay: as above; conditions: foliar spray at 1.0 to 2.0 leaf stage of Digitaria ciliaris, 3 weeks, 25° C.
Protocol: as §10, §11, §12, §13, §5

[10] = test system: Digitaria ciliaris; assay: as above; conditions: foliar spray at 1.0 to 2.0 leaf stage of Digitaria ciliaris, 3 weeks, 25° C.
Protocol: as §10, §11, §12, §13, §5

[11] = test system: Digitaria ciliaris; assay: Weed foliar treatment test (Test 4, 4.0 to 5.0 leaf stage); conditions: 10g a.i./10a; foliar spray at 4.0 to 5.0 leaf stage of Digitaria ciliaris (plant height 10 cm to 15 cm); 20 days, 25° C.
Protocol: (§14) 4. Weed Foliar Treatment Test
(§15) Field soil was filled into a 1/4500 are pot followed by seeding with Digitaria ciliaris and Galinsoga parviflora, covering with soil and cultivating in a glass greenhouse at an average atmospheric temperature of 25° C.
as §12, with “100” for “150”, “4.0” for “1.0”, “5.0” for “2.0”, “stage (plant height: 10 cm to 15 cm).” for “stage.”
(§16) After treating for 20 days in a glass greenhouse at an average atmospheric temperature of 25° C., the herbicidal efficacy thereof was investigated.
as §5

[12] = test system: Galinsoga parviflora; assay: as above; conditions: 10g a.i./10a; foliar spray at 4.0 to 5.0 leaf stage of Digitaria ciliaris; 20 days, 25° C.
Protocol: as §14, §15
as §12, with “100” for “150”, “4.0” for “1.0”, “5.0” for “2.0”, “stage (plant height: 10 cm to 15 cm).” for “stage.”
as §16, §5

SMILES	herbicidal efficacy, Amaranthus retroflexus ([1]; 5g a.i./10a)	herbicidal efficacy, Amaranthus retroflexus ([1]; 10g a.i./10a)	herbicidal efficacy, Chenopodium album ([2]; 5g a.i./10a)	herbicidal efficacy, Chenopodium album ([2]; 10g a.i./10a)	herbicidal efficacy, Digitaria ciliaris ([3]; 5g a.i./10a)	herbicidal efficacy, Digitaria ciliaris ([3]; 10g a.i./10a)	herbicidal efficacy, Digitaria ciliaris [11]	herbicidal efficacy, Galinsoga parviflora [12]	also measured
CN(C(=O)CC1CC1)c1c(C#N)cnn1-c1nn2c(c1Cl)CCCC2 [Compound 1, Methyl N-(1-(3-chloro-4,5,6,7-tetrahydropyrazolo[1,5-a]pyridin-2-yl)4-cyanopyrazol-5-yl)-2-cyclopropyl Acetoamide]	10 (10: 100%)	10 (10: 100%)	10 (10: 100%)	10 (10: 100%)	9 (9: 90% to less than 100%)	10 (10: 100%)	–	–	–
O=C(Nc1c([N+](=O)[O-])cnn1-c1nn2c(c1Cl)CCCC2)C1CC1 [Compound 2]	10 (10: 100%)	10 (10: 100%)	9 (9: 90% to less than 100%)	9 (9: 90% to less than 100%)	9 (9: 90% to less than 100%)	9 (9: 90% to less than 100%)	10 (10: 100%)	10 (10: 100%)	herbicidal efficacy, Echinochloa crus-galli ([4]; 1g a.i./10a): 10 (10: 100%); herbicidal efficacy, Echinochloa crus-galli ([4]; 5g a.i./10a): 10 (10: 100%); herbicidal efficacy, Monochoria vaginalis ([5]; 1g a.i./10a): 10 (10: 100%); herbicidal efficacy, Monochoria vaginalis ([5]; 5g a.i./10a): 10 (10: 100%); herbicidal efficacy, Scirpus juncoides ([6]; 1g a.i./10a): 9 (9: 90% to less than 100%); herbicidal efficacy, Scirpus juncoides ([6]; 5g a.i./10a): 9 (9: 90% to less than 100%); phytotoxicity, Oryza sativa ([7]; 1g a.i./10a): 1 (1: 10% to less than 20%); phytotoxicity, Oryza sativa ([7]; 5g a.i./10a): 1 (1: 10% to less than 20%); herbicidal efficacy, Amaranthus retroflexus ([8]; 5g a.i./10a): 10 (10: 100%); herbicidal efficacy, Amaranthus retroflexus ([8]; 10g a.i./10a): 10 (10: 100%); herbicidal efficacy, Chenopodium album ([9]; 5g a.i./10a): 10 (10: 100%); herbicidal efficacy, Chenopodium album ([9]; 10g a.i./10a): 10 (10: 100%); herbicidal efficacy, Digitaria ciliaris ([10]; 5g a.i./10a): 10 (10: 100%); herbicidal efficacy, Digitaria ciliaris ([10]; 10g a.i./10a): 10 (10: 100%)
CC1(C(=O)Nc2c(C#N)cnn2-c2nn3c(c2Cl)CCCC3)CC1 [Compound 3]	–	–	–	–	–	–	10 (10: 100%)	10 (10: 100%)	–
N#Cc1cnn(-c2nn3c(c2Cl)CCCC3)c1NC(=O)C1CCC1 [Compound 4]	–	–	–	–	–	–	10 (10: 100%)	10 (10: 100%)	–
N#Cc1cnn(-c2nn3c(c2Cl)CCCC3)c1NC(=O)C1CCCC1 [Compound 5]	–	–	–	–	–	–	10 (10: 100%)	10 (10: 100%)	–
O=C(Nc1c([N+](=O)[O-])cnn1-c1nn2c(c1Cl)CCCC2)C1CCCC1 [Compound 6]	10 (10: 100%)	10 (10: 100%)	9 (9: 90% to less than 100%)	9 (9: 90% to less than 100%)	9 (9: 90% to less than 100%)	9 (9: 90% to less than 100%)	9 (9: 90% to less than 100%)	10 (10: 100%)	herbicidal efficacy, Echinochloa crus-galli ([4]; 1g a.i./10a): 10 (10: 100%); herbicidal efficacy, Echinochloa crus-galli ([4]; 5g a.i./10a): 10 (10: 100%); herbicidal efficacy, Monochoria vaginalis ([5]; 1g a.i./10a): 10 (10: 100%); herbicidal efficacy, Monochoria vaginalis ([5]; 5g a.i./10a): 10 (10: 100%); herbicidal efficacy, Scirpus juncoides ([6]; 1g a.i./10a): 9 (9: 90% to less than 100%); herbicidal efficacy, Scirpus juncoides ([6]; 5g a.i./10a): 9 (9: 90% to less than 100%); phytotoxicity, Oryza sativa ([7]; 1g a.i./10a): 0 (0 (exponent): 0% to less than 10% (growth inhibition rate)); phytotoxicity, Oryza sativa ([7]; 5g a.i./10a): 1 (1: 10% to less than 20%); herbicidal efficacy, Amaranthus retroflexus ([8]; 5g a.i./10a): 10 (10: 100%); herbicidal efficacy, Amaranthus retroflexus ([8]; 10g a.i./10a): 10 (10: 100%); herbicidal efficacy, Chenopodium album ([9]; 5g a.i./10a): 10 (10: 100%); herbicidal efficacy, Chenopodium album ([9]; 10g a.i./10a): 10 (10: 100%); herbicidal efficacy, Digitaria ciliaris ([10]; 5g a.i./10a): 10 (10: 100%); herbicidal efficacy, Digitaria ciliaris ([10]; 10g a.i./10a): 10 (10: 100%)
N#Cc1cnn(-c2nn3c(c2Cl)CCCC3)c1NC(=O)C1CCCCC1 [Compound 7]	–	–	–	–	–	–	10 (10: 100%)	10 (10: 100%)	–
O=C(CC1CC1)Nc1c([N+](=O)[O-])cnn1-c1nn2c(c1Cl)CCCC2 [Compound 8]	10 (10: 100%)	10 (10: 100%)	10 (10: 100%)	10 (10: 100%)	9 (9: 90% to less than 100%)	10 (10: 100%)	9 (9: 90% to less than 100%)	10 (10: 100%)	herbicidal efficacy, Echinochloa crus-galli ([4]; 1g a.i./10a): 9 (9: 90% to less than 100%); herbicidal efficacy, Echinochloa crus-galli ([4]; 5g a.i./10a): 10 (10: 100%); herbicidal efficacy, Monochoria vaginalis ([5]; 1g a.i./10a): 10 (10: 100%); herbicidal efficacy, Monochoria vaginalis ([5]; 5g a.i./10a): 10 (10: 100%); herbicidal efficacy, Scirpus juncoides ([6]; 1g a.i./10a): 9 (9: 90% to less than 100%); herbicidal efficacy, Scirpus juncoides ([6]; 5g a.i./10a): 10 (10: 100%); phytotoxicity, Oryza sativa ([7]; 1g a.i./10a): 0 (0 (exponent): 0% to less than 10% (growth inhibition rate)); phytotoxicity, Oryza sativa ([7]; 5g a.i./10a): 0 (0 (exponent): 0% to less than 10% (growth inhibition rate)); herbicidal efficacy, Amaranthus retroflexus ([8]; 5g a.i./10a): 10 (10: 100%); herbicidal efficacy, Amaranthus retroflexus ([8]; 10g a.i./10a): 10 (10: 100%); herbicidal efficacy, Chenopodium album ([9]; 5g a.i./10a): 10 (10: 100%); herbicidal efficacy, Chenopodium album ([9]; 10g a.i./10a): 10 (10: 100%); herbicidal efficacy, Digitaria ciliaris ([10]; 5g a.i./10a): 9 (9: 90% to less than 100%); herbicidal efficacy, Digitaria ciliaris ([10]; 10g a.i./10a): 10 (10: 100%)
N#Cc1cnn(-c2nn3c(c2Cl)CCCC3)c1NC(=O)CC1CCCC1 [Compound 29]	–	–	–	–	–	–	10 (10: 100%)	10 (10: 100%)	–
N#Cc1cnn(-c2nn3c(c2Cl)CCCC3)c1NC(=O)CCC1CCCC1 [Compound 30]	–	–	–	–	–	–	10 (10: 100%)	10 (10: 100%)	–
N#Cc1cnn(-c2nn3c(c2Cl)CCCC3)c1NC(=O)CCC1CC=CCC1 (centres unmarked) [Compound 31]	–	–	–	–	–	–	10 (10: 100%)	10 (10: 100%)	–
